This is an account of results in PubChem BioAssay AID493182 (Sanford-Burnham Center for Chemical Genomics, 2011).

The test addresses Ubiquitin-conjugating enzyme E2 N (Homo sapiens) (UniProt P61088). Description: concentration-dependent UBC13 chain formation blockade – biochemical, TR-FRET, reconfirmation, dose response (AID 493182). To be noted: UBC13 polyubiquitination. Background: In TR-FRET formats the signal depends on donor and acceptor labels being close together.

Sequence of Ubiquitin-conjugating enzyme E2 N (Homo sapiens) (P61088 whole entry, looked up): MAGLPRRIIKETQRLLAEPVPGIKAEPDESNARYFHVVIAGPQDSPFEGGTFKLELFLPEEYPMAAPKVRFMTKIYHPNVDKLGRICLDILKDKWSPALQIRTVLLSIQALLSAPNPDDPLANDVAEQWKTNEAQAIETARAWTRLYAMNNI

Broadly, the IC50 is the concentration needed to halve the response being measured. As to `C#CCOCCOCCOCCNc1nc(N2CCN(C(=O)CCCCCCCCCCNC(=O)[C@H](CCCCN)n3cc(CCO)nn3)CC2)nc(N2CCN(C(=O)CCCCCCCCCCNC(=O)[C@H](CCCCN)n3cc(CCO)nn3)CC2)n1`, the IC50 was 4.73 µM. To `N#Cc1ccc(OCC(=O)NNC(=S)NC(=O)C2CC2)cc1` belongs 6.43 µM; to `CCC[C@@H](CN1CCC[C@H]1CN1C(N)=NC[C@H]1CC(C)C)N1C[C@@H](Cc2ccccc2)N(CCc2ccc(Cl)c(Cl)c2)C1=N`, 12.6 µM; to `Cc1ccc(N(C(=O)c2snc(C(N)=O)c2N)C(C(=O)NCC2CCCO2)c2c[nH]c3ccccc23)cc1` (configuration not stated), 12.1 µM.

In the case of `C#CCOCCOCCOCCNc1nc(N2CCN(C(=O)C([C@@H](C)O)n3cc([C@@H](N)CCCCN)nn3)CC2)nc(N2CCN(C(=O)[C@H](CCCCN)n3cc(CN)nn3)CC2)n1` (some centres not stated), the IC50 was 3.71 µM. For `CCCCCCCCCCC[N+](C)(C)CC/C=C1/c2ccccc2Sc2ccc(Cl)cc21` the value was 4.77 µM; for `O=C(CSc1nc2ccsc2c(=O)n1Cc1ccc(C(=O)O)cc1)NCC1CCCO1` (configuration not stated), 17.3 µM.
